The source made the active and inactive calls. The calls are words filed in the database; no cut-off is given here.
Tests used:
Mus musculus [1] = assay: Anticonvulsant activity in albino Mus musculus (mouse) assessed as protection against subcutaneous pentylenetetrazol-induced seizures at 300 mg/kg, ip after 0.5 hr relative to control; type: functional, organism-based; design: dose 300 mg/kg
Mus musculus [2] = assay: Anticonvulsant activity in albino Mus musculus (mouse) assessed as protection against subcutaneous pentylenetetrazol-induced seizures at 100 mg/kg, ip after 0.5 hr relative to control; type: functional, organism-based; design: dose 100 mg/kg
Mus musculus [3] = assay: Anticonvulsant activity in albino Mus musculus (mouse) assessed as protection against subcutaneous pentylenetetrazol-induced seizures at 30 mg/kg, ip after 0.5 hr relative to control; type: functional, organism-based; design: dose 30 mg/kg
Mus musculus [4] = assay: Anticonvulsant activity in albino Mus musculus (mouse) assessed as protection against maximal electroshock-induced seizures at 30 mg/kg, ip after 4 hr relative to control; type: functional, organism-based; design: dose 30 mg/kg
Mus musculus [5] = assay: Neurotoxicity in albino Mus musculus (mouse) assessed as motor impairment at 100 mg/kg, ip after 0.5 hr relative to control; type: toxicity, organism-based; design: dose 100 mg/kg, route intraperitoneal; details: in vivo
Mus musculus [6] = assay: Anticonvulsant activity in albino Mus musculus (mouse) assessed as protection against subcutaneous pentylenetetrazol-induced seizures at 300 mg/kg, ip after 4 hr relative to control; type: functional, organism-based; design: dose 300 mg/kg
Mus musculus [7] = assay: Anticonvulsant activity in albino Mus musculus (mouse) assessed as protection against subcutaneous pentylenetetrazol-induced seizures at 30 mg/kg, ip after 4 hr relative to control; type: functional, organism-based; design: dose 30 mg/kg
[8] = Partition coefficient, log P of the compound; type: physicochemical; details: octanol/water
Mus musculus [9] = assay: Anticonvulsant activity in albino Mus musculus (mouse) assessed as protection against maximal electroshock-induced seizures at 100 mg/kg, ip after 4 hr relative to control; type: functional, organism-based; design: dose 100 mg/kg
Mus musculus [10] = assay: Anticonvulsant activity in albino Mus musculus (mouse) assessed as protection against maximal electroshock-induced seizures at 300 mg/kg, ip after 4 hr relative to control; type: functional, organism-based; design: dose 300 mg/kg
Mus musculus [11] = assay: Anticonvulsant activity in albino Mus musculus (mouse) assessed as protection against subcutaneous pentylenetetrazol-induced seizures at 100 mg/kg, ip after 4 hr relative to control; type: functional, organism-based; design: dose 100 mg/kg
Mus musculus [12] = assay: Neurotoxicity in albino Mus musculus (mouse) assessed as motor impairment at 30 mg/kg, ip after 4 hr relative to control; type: toxicity, organism-based; design: dose 30 mg/kg, route intraperitoneal; details: in vivo
Mus musculus [13] = assay: Neurotoxicity in albino Mus musculus (mouse) assessed as motor impairment at 300 mg/kg, ip after 4 hr relative to control; type: toxicity, organism-based; design: dose 300 mg/kg, route intraperitoneal; details: in vivo
Mus musculus [14] = assay: Anticonvulsant activity in albino Mus musculus (mouse) assessed as protection against maximal electroshock-induced seizures at 300 mg/kg, ip after 0.5 hr relative to control; type: functional, organism-based; design: dose 300 mg/kg
Mus musculus [15] = assay: Anticonvulsant activity in albino Mus musculus (mouse) assessed as protection against maximal electroshock-induced seizures at 100 mg/kg, ip after 0.5 hr relative to control; type: functional, organism-based; design: dose 100 mg/kg
Mus musculus [16] = assay: Neurotoxicity in albino Mus musculus (mouse) assessed as motor impairment at 100 mg/kg, ip after 4 hr relative to control; type: toxicity, organism-based; design: dose 100 mg/kg, route intraperitoneal; details: in vivo
Mus musculus [17] = assay: Neurotoxicity in albino Mus musculus (mouse) assessed as motor impairment at 30 mg/kg, ip after 0.5 hr relative to control; type: toxicity, organism-based; design: dose 30 mg/kg, route intraperitoneal; details: in vivo
Mus musculus [18] = assay: Anticonvulsant activity in albino Mus musculus (mouse) assessed as protection against maximal electroshock-induced seizures at 30 mg/kg, ip after 0.5 hr relative to control; type: functional, organism-based; design: dose 30 mg/kg
Mus musculus [19] = assay: Neurotoxicity in albino Mus musculus (mouse) assessed as motor impairment at 300 mg/kg, ip after 0.5 hr relative to control; type: toxicity, organism-based; design: dose 300 mg/kg, route intraperitoneal; details: in vivo
Mus musculus [20] = assay: Anticonvulsant activity in albino Mus musculus (mouse) assessed as protection against maximal electroshock-induced seizures at 30 mg/kg, sc after 4 hr relative to control; type: functional, organism-based; design: dose 30 mg/kg
Mus musculus [21] = assay: Anticonvulsant activity in albino Mus musculus (mouse) assessed as protection against maximal electroshock-induced seizures at 30 mg/kg, sc after 0.5 hr relative to control; type: functional, organism-based; design: dose 30 mg/kg
Mus musculus [22] = assay: Neurotoxicity in albino Mus musculus (mouse) assessed as motor impairment at 30 mg/kg, sc after 0.5 hr relative to control; type: toxicity, organism-based; design: dose 30 mg/kg, route subcutaneous; details: in vivo
Mus musculus [23] = assay: Anticonvulsant activity in albino Mus musculus (mouse) assessed as protection against subcutaneous pentylenetetrazol-induced seizures at 30 mg/kg, sc after 0.5 hr relative to control; type: functional, organism-based; design: dose 30 mg/kg
Mus musculus [24] = assay: Anticonvulsant activity in albino Mus musculus (mouse) assessed as protection against subcutaneous pentylenetetrazol-induced seizures at 30 mg/kg, sc after 4 hr relative to control; type: functional, organism-based; design: dose 30 mg/kg
Mus musculus [25] = assay: Neurotoxicity in albino Mus musculus (mouse) assessed as motor impairment at 30 mg/kg, sc after 4 hr relative to control; type: toxicity, organism-based; design: dose 30 mg/kg, route subcutaneous; details: in vivo

SMILES	Activity (Mus musculus [1])	Activity (Mus musculus [2])	Activity (Mus musculus [3])	Activity (Mus musculus [4])	Activity (Mus musculus [5])	Activity (Mus musculus [6])	Activity (Mus musculus [7])	logP [8]	Activity (Mus musculus [9])	Activity (Mus musculus [10])	Activity (Mus musculus [11])	Activity (Mus musculus [12])	Activity (Mus musculus [13])	Activity (Mus musculus [14])	Activity (Mus musculus [15])	Activity (Mus musculus [16])	Activity (Mus musculus [17])	Activity (Mus musculus [18])	Activity (Mus musculus [19])	other results
NC(=S)N1N=C(c2ccccn2)CC1c1ccc(Cl)cc1 (centres undefined)	Active	inactive	inactive	inactive	Non-toxic	inactive	inactive	4.21	inactive	Active	inactive	Non-toxic	Non-toxic	Active	Active	Non-toxic	Non-toxic	inactive		
CCNC(=S)N1N=C(c2ccccn2)CC1c1ccc(Cl)cc1 (centres undefined)	Active	inactive	inactive	inactive	Non-toxic	inactive	inactive	3.64	inactive	inactive	inactive	Non-toxic	Non-toxic	Active	Active	Non-toxic	Non-toxic	inactive	Non-toxic	
NC(=S)N1N=C(c2ccccn2)CC1c1ccc(OCc2ccccc2)cc1 (centres undefined)	inactive	inactive	inactive	inactive	Toxic	inactive	inactive	1.17	inactive	inactive	inactive	Non-toxic		inactive	inactive			inactive	Toxic	
CCNC(=S)N1N=C(c2ccccn2)CC1c1ccc(OCc2ccccc2)cc1 (centres undefined)	Active	inactive	inactive	inactive	Non-toxic	inactive	inactive	1.46	inactive	inactive	inactive	Non-toxic	Non-toxic	Active	Active	Non-toxic	Non-toxic	inactive		
COc1ccc(C2CC(c3ccccn3)=NN2C(N)=S)cc1 (centres undefined)	Active	Active	inactive	inactive	Non-toxic	inactive	inactive	2.82	inactive	inactive	inactive	Non-toxic	Non-toxic	inactive	inactive	Non-toxic	Non-toxic	inactive	Non-toxic	
CCNC(=S)N1N=C(c2ccccn2)CC1c1cccc2ccccc12 (centres undefined)	Active	Active	inactive	inactive	Non-toxic	Active	inactive	4.7	inactive	Active	inactive	Non-toxic	Non-toxic	Active	Active	Non-toxic	Non-toxic	inactive	Non-toxic	
CCC1(c2ccccc2)C(=O)NC(=O)NC1=O [PHENOBARBITAL]																				Activity (Mus musculus [20]): Active; Activity (Mus musculus [21]): Active; Activity (Mus musculus [22]): Non-toxic; Activity (Mus musculus [23]): Active; Activity (Mus musculus [24]): Active; Activity (Mus musculus [25]): Non-toxic
CCNC(=S)N1N=C(c2ccccn2)CC1c1ccc(OC)cc1 (centres undefined)	Active	Active	Active	inactive	Non-toxic	Active	inactive	2.92	inactive	inactive	inactive	Non-toxic	Non-toxic	inactive	inactive	Non-toxic	Non-toxic	inactive	Non-toxic	
NC(=S)N1N=C(c2ccccn2)CC1c1cccc(Cl)c1 (centres undefined)	Active	inactive	inactive	inactive	Non-toxic	Active	inactive	4.15	inactive	Active	inactive	Non-toxic	Non-toxic	Active	Active	Non-toxic	Non-toxic	Active		
CCNC(=S)N1N=C(c2ccccn2)CC1c1cccc(Cl)c1 (centres undefined)	Active	inactive	inactive	inactive	Non-toxic	inactive	inactive	3.2	inactive	inactive	inactive	Non-toxic	Non-toxic	Active	Active	Non-toxic	Non-toxic	inactive		
NC(=S)N1N=C(c2ccccn2)CC1c1cccc2ccccc12 (centres undefined)	Active	Active	inactive	inactive	Non-toxic	Active	inactive	4.51	Active	Active	inactive	Non-toxic	Non-toxic	Active	Active	Non-toxic	Non-toxic	Active	Non-toxic	

— ChEMBL document CHEMBL3045568, “Novel 2-pyrazoline derivatives as potential anticonvulsant agents” (Med Chem Res, 2013)
